# PubChem BioAssay AID2060910 (Molecular Pharmacology Branch, DTP, NCI, 2025)
# Test system: 242566-281-R-J2-PDC complex spheroid viability
# Assay: Anticancer human tumor 242566-281-R-J2-PDC patient-derived pancreatic carcinoma cell line growth inhibition [RAS]
# Settings: for IC50: curve of first compound; for viability, T/C: stronger effect = lower value
# Excerpt: RAS pathway inhibitors in Combinations in Complex Spheroids
# A high-throughput screen of multi-cell type tumor spheroids was designed to identify active combinations of RAS pathway inhibitors and targeted small molecules. Complex spheroids include a stromal component modeled by human endothelial cells (HUVEC) and fibroblasts modeled by human mesenchymal stem cells (MSCs). The concentration ranges selected for each drug and investigational agent were based upon clinically achievable concentrations if the clinical Cmax of the agent was known.
# Compounds. The drugs and investigational agents: abemaciclib (NSC768073), cobimetinib (NSC768068), divarasib (GDC6063, NSC841802), docetaxel (NSC628503), GDC-1971 (RLY-1971, NSC841576), gemcitabine (NSC613327), inavolisib (NSC800729), ipatasertib (NSC767898), KB-0742 (NSC834161), MRTX-1133 (NSC836407), osimertinib (NSC779217), RMC-4630 (NSC839698), RMC-6236 (NSC851965), RMC-6291 (NSC852671), Ro-3306 (NSC812927), sapanisertib (NSC764658), SN-38 (NSC673596), staurosporine (NSC755774), SY5609 (NSC837396), and tovorafenib (DAY101, NSC766906), were obtained from the National Cancer Institute (NCI) Developmental Therapeutics Program Chemical Repository. The FDA-approved anticancer drug set is available from the NCI Developmental Therapeutics Program. […] The stock solutions were prepared in dimethyl sulfoxide (DMSO, Sigma-Aldrich, St. Louis, MO, cat. D2650) at 800-fold the tested concentration and stored at -70 degrees C prior to their use. All drugs and investigational agents were tested over a range starting from a high concentration at or near the clinical Cmax and decreasing in half-log increments. If the clinical Cmax for an agent had not been determined, the highest concentration tested was 10 microM.
# Cell Culture. All cells were maintained in an incubator at 37 degrees C and 5% CO2 with 95% humidity. The PDC lines were cultured according to standard operating procedures established by the NCI PDMR. All PDCs were thawed and cultured in Matrigel-coated flasks prepared with a working solution of 1X Ham's F-12 nutrient mix, without supplementation (Invitrogen, Waltham, MA, cat. 11765054), 100 U/mL penicillin-streptomycin (Invitrogen, cat. 15140122), and 2.5% Matrigel (Corning Inc., Corning, NY, cat. 354248) for the first three passages. The 362531-283-R-J2-PDC and 782815-120-R-J1-PDC lines were cultured in 6C/Colon 1B media, which includes advanced DMEM/F-12 (Thermo Fisher Scientific, cat. 12634028), 10 mM HEPES (Thermo Fisher Scientific, cat. 15630080), 1X GlutaMAX supplement (Thermo Fisher Scientific, cat. 35050061), 0.1 mg/mL primocin (InvivoGen, San Diego, CA, cat. ant-pm-2), 10% defined fetal bovine serum, heat inactivated (HyClone Laboratories Inc., Logan, UT, cat. SH30070.03HI), 50% L-WRN conditioned media (ATCC, cat. CRL-3276), 1.25 mM N-Acetyl-L-cysteine (Sigma-Aldrich, cat. A9165), 10 mM nicotinamide (Sigma-Aldrich, cat. N0636), 1X B-27 supplement (Thermo Fisher Scientific, cat. 17504044), 1X N-2 supplement (Thermo Fisher Scientific, cat. 17502048), 50 ng/mL human EGF (Thermo Fisher Scientific, cat. PHG0311), and 10 microM Y-27632 dihydrochloride (Tocris Bioscience, cat. 1254). The K12877-001-R-J1-PDC line was cultured in 6I media, which includes all 6C/Colon 1B media plus 10 ng/mL human FGF-10 (PeproTech, cat. 100-26), 1 ng/mL human FGF-2 (PeproTech, cat. 100-18B), 1 µM prostaglandin E2 (Tocris Bioscience, cat. 2296), […] hydrocortisone (Sigma-Aldrich, cat. H4001), and […] bovine insulin (Sigma-Aldrich, cat. I6634). The K86415-001-R-J1-PDC line was cultured in 6D media, which includes all 6C/Colon 1B media components minus the L-WRN conditioned media. The 485176-168-R4-J1-PDC was cultured in PANC media, which includes all 6C/Colon 1B media plus 100 ng/mL human FGF-10 (PeproTech, cat. 100-26), 500 nM SB-431542 (Selleckchem, cat. S1067), and 10 nM gastrin (Tocris Bioscience, cat. 3006). […]
# [1] = second compound 0.000949 µM, first compound 0.0316 µM
# [2] = second compound 0.000949 µM, first compound 0.1 µM
# [3] = second compound 0.000949 µM, first compound 0.316 µM
# [4] = second compound 0.000949 µM, first compound 1 µM
# [5] = second compound 0.000949 µM, first compound 3.16 µM
# [6] = second compound 0.000949 µM, first compound 10 µM
# [7] = second compound 0.003 µM, first compound 0.0316 µM
# [8] = second compound 0.003 µM, first compound 0.1 µM
# [9] = second compound 0.003 µM, first compound 0.316 µM
# [10] = second compound 0.003 µM, first compound 1 µM
# [11] = second compound 0.003 µM, first compound 3.16 µM
# [12] = second compound 0.003 µM, first compound 10 µM
# [13] = second compound 0.00949 µM, first compound 0.0316 µM
# [14] = second compound 0.00949 µM, first compound 0.1 µM
# [15] = second compound 0.00949 µM, first compound 0.316 µM
# [16] = second compound 0.00949 µM, first compound 1 µM
# [17] = second compound 0.00949 µM, first compound 3.16 µM
# [18] = second compound 0.00949 µM, first compound 10 µM
# [19] = second compound 0.03 µM, first compound 0.0316 µM
# [20] = second compound 0.03 µM, first compound 0.1 µM
# [21] = second compound 0.03 µM, first compound 0.316 µM
# [22] = second compound 0.03 µM, first compound 1 µM
# [23] = second compound 0.03 µM, first compound 3.16 µM
# [24] = second compound 0.03 µM, first compound 10 µM
# [25] = second compound 0.0949 µM, first compound 0.0316 µM
# [26] = second compound 0.0949 µM, first compound 0.1 µM
# [27] = second compound 0.0949 µM, first compound 0.316 µM
# [28] = second compound 0.0949 µM, first compound 1 µM
# [29] = second compound 0.0949 µM, first compound 3.16 µM
# [30] = second compound 0.0949 µM, first compound 10 µM
# [31] = second compound 0.3 µM, first compound 0.0316 µM
# [32] = second compound 0.3 µM, first compound 0.1 µM
# [33] = second compound 0.3 µM, first compound 0.316 µM
# [34] = second compound 0.3 µM, first compound 1 µM
# [35] = second compound 0.3 µM, first compound 3.16 µM
# [36] = second compound 0.3 µM, first compound 10 µM
# 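Note: spheroids exposed to compound for 7 days before readout.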
# 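Throughout, for viability, T/C: 100% = DMSO vehicle control wells.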
compound,measurement,setting,value
CC1(O)CCCC1n1c(=O)c(C(F)F)cc2cnc(NC3CCN(S(C)(=O)=O)CC3)nc21 (centres undefined) + CCn1c(-c2cc(N3CCN(C)CC3)cnc2C(C)OC)c2c3cc(ccc31)-c1csc(n1)CC(NC(=O)C1CC1C)C(=O)N1CCCC(N1)C(=O)OCC(C)(C)C2,IC50,second compound 0.000949 µM,6350 nM
same,IC50,second compound 0.003 µM,4930 nM
same,IC50,second compound 0.00949 µM,31.6 nM
same,IC50,second compound 0.03 µM,< 31.6 nM
same,IC50,second compound 0.0949 µM,< 31.6 nM
same,IC50,second compound 0.3 µM,< 31.6 nM
same,"viability, T/C",[1],85.7%
same,"viability, T/C",[2],84%
same,"viability, T/C",[3],72.8%
same,"viability, T/C",[4],98.9%
same,"viability, T/C",[5],98.1%
same,"viability, T/C",[6],25.2%
same,"viability, T/C",[7],73%
same,"viability, T/C",[8],58.6%
same,"viability, T/C",[9],64.7%
same,"viability, T/C",[10],73.3%
same,"viability, T/C",[11],82.5%
same,"viability, T/C",[12],17.2%
same,"viability, T/C",[13],43.7%
same,"viability, T/C",[14],42.2%
same,"viability, T/C",[15],49.5%
same,"viability, T/C",[16],51.4%
same,"viability, T/C",[17],53.2%
same,"viability, T/C",[18],14.7%
same,"viability, T/C",[19],25.7%
same,"viability, T/C",[20],28.7%
same,"viability, T/C",[21],30.8%
same,"viability, T/C",[22],35.6%
same,"viability, T/C",[23],30.7%
same,"viability, T/C",[24],18.1%
same,"viability, T/C",[25],23.1%
same,"viability, T/C",[26],23.8%
same,"viability, T/C",[27],22%
same,"viability, T/C",[28],28.7%
same,"viability, T/C",[29],22.5%
same,"viability, T/C",[30],15.1%
same,"viability, T/C",[31],18%
same,"viability, T/C",[32],18.6%
same,"viability, T/C",[33],20.5%
same,"viability, T/C",[34],23.6%
same,"viability, T/C",[35],26.8%
same,"viability, T/C",[36],14.1%
CC(C)NCC(C(=O)N1CCN(c2ncnc3c2C(C)CC3O)CC1)c1ccc(Cl)cc1 (centres undefined) + CCn1c(-c2cc(N3CCN(C)CC3)cnc2C(C)OC)c2c3cc(ccc31)-c1csc(n1)CC(NC(=O)C1CC1C)C(=O)N1CCCC(N1)C(=O)OCC(C)(C)C2,IC50,second compound 0.000949 µM,7980 nM
same,IC50,second compound 0.003 µM,3660 nM
same,IC50,second compound 0.00949 µM,< 31.6 nM
same,IC50,second compound 0.03 µM,< 31.6 nM
same,IC50,second compound 0.0949 µM,< 31.6 nM
same,IC50,second compound 0.3 µM,< 31.6 nM
same,"viability, T/C",[1],92.1%
same,"viability, T/C",[2],92.8%
same,"viability, T/C",[3],74.8%
same,"viability, T/C",[4],95.2%
same,"viability, T/C",[5],75.2%
same,"viability, T/C",[6],43.9%
same,"viability, T/C",[7],78%
same,"viability, T/C",[8],70.3%
same,"viability, T/C",[9],57.6%
same,"viability, T/C",[10],64.8%
same,"viability, T/C",[11],56.9%
same,"viability, T/C",[12],28.4%
same,"viability, T/C",[13],49.6%
same,"viability, T/C",[14],42.6%
same,"viability, T/C",[15],48.6%
same,"viability, T/C",[16],41.5%
same,"viability, T/C",[17],26%
same,"viability, T/C",[18],17.9%
same,"viability, T/C",[19],30.9%
same,"viability, T/C",[20],31.8%
same,"viability, T/C",[21],28.5%
same,"viability, T/C",[22],27.1%
same,"viability, T/C",[23],12%
same,"viability, T/C",[24],9.97%
same,"viability, T/C",[25],23.8%
same,"viability, T/C",[26],22.7%
same,"viability, T/C",[27],22.1%
same,"viability, T/C",[28],20.8%
same,"viability, T/C",[29],7.71%
same,"viability, T/C",[30],5.5%
same,"viability, T/C",[31],19.9%
same,"viability, T/C",[32],18%
same,"viability, T/C",[33],16.7%
same,"viability, T/C",[34],13.1%
same,"viability, T/C",[35],6.93%
same,"viability, T/C",[36],3.76%
